Experiments:
[1] = tested on: PI3K, mTORC1 and mTORC2 signaling; test: Western blotting of PI3K-AKT-mTOR signaling; assay type: cell-based, human
Method: (§1) Cells were plated in 6 well dishes and treated the following day with the indicated agents. Treatments were for 24 hours, after which cells were washed with ice cold PBS and lysed with RIPA buffer (Sigma). Phosphatase inhibitor cocktail set II and protease inhibitor cocktail set III (EMD Millipore) were added at the time of lysis. Lysates were centrifuged at 15,000 g×10 min at 4 degrees C. Protein concentrations were calculated based on a BCA assay (Thermo Scientific) generated standard curve. Proteins were resolved using the NuPAGE Novex Mini Gel system on 4% to 12% Bis-Tris Gels (Invitrogen). For western blotting, equal amounts of cell lysates (15-20 μg of protein) were resolved with SDSPAGE, and transferred to membranes. The membrane was probed with primary antibodies, washed, and then incubated with corresponding fluorescent secondary antibodies and washed. The fluorescent signal was captured using LI-COR (Lincoln, Nebr.) Odyssey Imaging System, and fluorescent intensity was quantified using the Odyssey software where indicated. The following antibodies were used for Western blots: p-S6 (S240/244), S6, LC3B, p-Akt(S473), p-Akt(T308), Akt, cleaved caspase3 (Cell Signaling Technologies). p-Stat3 (Y705), Stat3 and β-actin (AC15) (Abcam). Ki67 (Dako) and cleaved caspase3 (Cell Signaling Technologies) were used for immunohistochemistry. […] BX795 and GDC0941 were purchased from Sigma.

ACHN xenografts = test: ACHN xenograft study; assay type: in vivo
Method: 6-week old mice were utilized for human renal cell carcinoma xenografts. For both ACHN and SN12C cell lines 2×10^6 cells were diluted in 50 μl of PBS and 50 μl of Matrigel (BD Biosciences) and were injected subcutaneously into the right and left flank of each mouse. Tumors were monitored until they reached an average size of 50-80 mm3 (approximately 2 weeks), at which point treatments were begun. […] MK2206 (60 mg/kg/day) were administered by oral gavage 2-3 day/week. […] Tumors and mouse weights were measured twice weekly. At least 6-8 mice per treatment group were included. All mice were euthanized using CO2 inhalation followed by cervical dislocation per institutional guidelines at Oregon Health and Science University. Experiments were approved by the Institutional Animal Care and Use Committee at OHSU.
Immunostaining was performed following deparaffinization and rehydration of slides. Antigen retrieval was performed in a pressure cooker using citrate buffer (pH 6.0) for 4 min. Nonspecific binding was blocked using Vector mouse IgG blocking serum 30 min at room temperature. Samples were incubated at room temperature with rabbit monoclonal antibodies pS6 (CST #5364) cleaved caspase 3 (CST#9661), and Ki67 (Dako#M7240).
Slides were developed with Vector Immpress rabbit IgG (#MP7401) and Vector Immpress mouse IgG (#MP7400) for 30 min at room temperature. Chromogenic detection was performed using Vector Immpact DAB (#SK4105) for 3 min. Slides were counterstained with hematoxylin. A 3DHistech MIDI Scanner (Perkin Elmer) was used to capture whole slide digital images with a 20× objective. Images were converted to into MRXS files and computer graphic analysis was completed using inForm 1.4.0 Advanced Image Analysis Software (Perkin Elmer).
Mouse tumor size was analyzed by 2-way ANOVA with time and drug as factors, using GraphPad Prism. Mouse weight during treatment was analyzed by repeated measures 2-way ANOVA, with time and drug as factors. A P value less than 0.05 was considered statistically significant. Immunohistochemistry: P-values were calculated using one-way ANOVA, with Bonferroni's multiple comparison test. * denotes P<0.05, ** denotes P<0.01, and *** denotes P<0.001 throughout this disclosure. Metabolite fold-changes were computed and visualized in Python script, using the openpyxl package (for importing Excel files) and the matplotlib package (for visualizing fold changes).

[2] = tested on: human RCC and MPN cell lines; test: Suppression of JAK and STAT3 phosphorylation; assay type: cell-based; conditions: multiple human RCC and MPN cell lines
Method: as §1

[3] = tested on: patient-derived RCC organotypic cultures; test: Patient tumor ex vivo organotypic culture; assay type: cell-based, human; conditions: 24 hours
Method: Tumor tissue samples were collected at the time of surgical removal for consented patients and transported in IMEM+FBS+PS. Tissue was sliced into thin sections using a surgical knife. Sections were cultured on an organotypic insert (EMD#PICMORG50) for 24 hours in IMEM+10% FBS+1% PS+50 ug/ml holo-transferrin with drug. A section of each tumor was immediately fixed in 10% buffered formalin to confirm tissue viability. After culture, treated tissue sections were fixed in 10% buffered formalin and embedded in paraffin. Paraffin embedded tumors were evaluated for morphology (H&E) and immunofluorescent signaling.
H&E slides of formalin fixed, paraffin embedded tissue was used to assess morphological integrity of tumor samples. Once integrity was confirmed, immunofluorescent analysis was performed for p-S6 (1:500 CST), p-AKT (1:200 CST) and LC3B (1:250 CST). Four micron sections were cut, de-paraffinized and rehydrated. Antigen retrieval was performed using citrate for 4 min in a pressure cooker. Slides were blocked using 2.5% normal goat serum for 30 min then incubated in primary antibody for 1 hr followed by secondary antibody mouse anti-rabbit alexa 488 (1:1000) for 30 min. Slides were rinsed in PBS, air dried, and coverslipped using Dako mounting media with Dapi.

SMILES: N#CCNC(=O)c1ccc(-c2ccnc(Nc3ccc(N4CCOCC4)cc3)n2)cc1 [CYT387]
- phosphorylation of ERK 1/2 [1]: no effect on the phosphorylation of ERK 1/2
- AKT T308 phosphorylation (readout for PI3K signaling) ([1]; time-dependent): increase in AKT T308
- apoptosis (cleaved-caspase3) in tumors (ACHN xenografts; ACHN xenograft tumors): minimal impact on apoptosis
- antitumor effect of single agent (ACHN xenografts; ACHN, CYT387 50 mg/kg/day or MK2206 60 mg/kg/day oral gavage): exhibited antitumor effect
- number of adipophilin-positive LDs in tumors (ACHN xenografts; treatment day 40, ACHN xenograft tumors, CYT387<MK2206<CYT387+MK2206, p=0.0046): significantly and incrementally increased
- phosphorylation of JAK and STAT3 [2]: effective in suppressing the phosphorylation of JAK and STAT3
- LCB expression and phosphorylated S6 levels [3]: significantly induced LCB expression while simultaneously reducing phosphorylated S6 levels
